Laboratory results: patent US20200038397A1, “PHARMACOTHERAPY FOR PREVENTING OR TREATING GLAUCOMA” (KOWA COMPANY, LTD., priority 2014, published 2020)

System: white rabbit
Assay: intraocular pressure-lowering effect of single and combined eye drop administration in white rabbits
Format: in vivo
Conditions: for IOP: intraocular pressure, 0 h: initial intraocular pressure immediately before application; for IOP: intraocular pressure, 0 h / IOP: intraocular pressure, 0.5 h / IOP: intraocular pressure, 1 h: n = 10, Compound 1 0.4% 50 μL, brimonidine 0.1% 50 μL; for IOP: intraocular pressure, 0.5 h: 0.5 h after application; for IOP: intraocular pressure, 1 h: 1 h after application
Protocol: To investigate the usefulness of the combination of (S)-(−)-1-(4-fluoro-5-isoquinolinesulfonyl)-2-methyl-1,4-homopiperazine (Compound 1) and an α2 agonist, intraocular pressure-lowering effect was compared between the case where each drug was singly administered to an experimental animal and the case where the drugs were administered to an experimental animal in combination.
(S)-(−)-1-(4-fluoro-5-isoquinolinesulfonyl)-2-methyl-1,4-homopiperazine hydrochloride dihydrate was dissolved in physiological saline, and the solution was then neutralized (pH 6.0) with addition of sodium dihydrogen phosphate and sodium hydroxide to prepare a solution of Compound 1 at a desired concentration.
Commercially available brimonidine (Senju Pharmaceutical Co., Ltd., AIPHAGAN eye drop 0.1%) was directly used.
The intraocular pressure-lowering effect of combined administration of Compound 1 and brimonidine was investigated. As controls, the intraocular pressure-lowering effect of single administration of Compound 1 and that of single administration of brimonidine were further investigated.
Solution of Compound 1: 0.4% solution (amount of application: 50 μL)
Brimonidine: 0.1% eye drop (amount of application: 50 μL)
Experimental animal: white rabbit (sex: male, 10 rabbits per group)
1) One drop of […] oxybuprocaine hydrochloride eye drop (trade name: Benoxil 0.4% solution) was applied to both eyes of an experimental animal for local anesthesia (data were acquired only from the eye to which the eye drop was applied).
2) The intraocular pressure was measured immediately before administration of a solution of a test compound, and the measurement was used as the initial intraocular pressure.
3) The solution of Compound 1 was applied to one eye of the experimental animal, and subsequently the solution of brimonidine was applied to the same eye.
4) One drop of the 0.4% oxybuprocaine hydrochloride eye drop was applied to each eye for local anesthesia 0.5 hours, 1 hour, 2 hours, 3 hours, 4 hours, and 5 hours after the application of the agents, and the intraocular pressure was then measured.
Compound 1 was singly applied, and a test was performed at the same measurement times as in the combined administration test.
A test was performed using the same method as in the single administration test except that the test solution in the single administration of Compound 1 was replaced with that of brimonidine.
The intraocular pressure was represented as an amount of change from the initial intraocular pressure. For statistical processing, Stat Preclinica Client 1.1 with parametric Tukey's multiple comparison was used.

| SMILES | IOP: intraocular pressure, 0 h | IOP: intraocular pressure, 0.5 h | IOP: intraocular pressure, 1 h | intraocular pressure-lowering action 0.5 hours after application of an eye drop (in words) (0.5 hours after application) |
| --- | --- | --- | --- | --- |
| C[C@H]1CNCCCN1S(=O)(=O)c1cccc2cncc(F)c12 [Compound 1, (S)-(−)-1-(4-fluoro-5-isoquinolinesulfonyl)-2-methyl-1,4-homopiperazine] | 26.5 ± 0.8 mmHg | 20.5 ± 1.2 mmHg | 15.9 ± 1.0 mmHg |  |
| Brc1c(NC2=NCCN2)ccc2nccnc12 [Brimonidine, brimonidine] | 24.2 ± 1.3 mmHg | 25.2 ± 0.9 mmHg | 19.4 ± 1.2 mmHg | no intraocular pressure-lowering action |
